According to US9969701B2, “Salts and co-crystals of lesinurad” (CRYSTAL PHARMATECH, INC., priority 2013, dated 2018):
Values after ≈ are worked out from the molar mass of the structure shown.

How the values were obtained:
[1] = Stability assessment under stress conditions (solid form by XRPD after storage); format: physicochemical; settings: 14 days; for Stability under stress conditions: 25° C./60% RH and 40° C./75% RH; for Final form: XRPD
Procedure: Analytical Instrument: Panalytical Empyrean. The X-ray powder diffractogram was determined by mounting a sample of the crystalline material on a Si single crystal low-background holder and spreading out the sample into a thin layer with the aid of a microscope slide. The 2θ position was calibrated against Panalytical 640 Si powder standard. The sample irradiated with X-rays generated by a copper long-fine focus tube operated at 45 kV and 40 mA with a wavelength of Kα1=1.540589 angstroms and Kα2=1.544426 angstroms (Kα1/Kα2 intensity ratio is 0.50). The collimated X-ray source was passed through a programmed divergence slit set at 10 mm and the reflected radiation directed through a 5.5 mm anti-scattering slit. The sample was exposed for 16.3 seconds per 0.013° 2-theta increment (continuous scan mode) over the range 3 degrees to 40 degrees 2-theta in theta-theta mode. The running time was 3 minutes and 57 seconds. The instrument was equipped with an RTMS detector (X'Celerator). Control and data capture was accomplished by means of a Dell Optiplex 780 XP operating with data collector software.
The solid samples were analyzed by […].
The solid samples were analyzed by XRPD.

[2] = Hygroscopicity assessment by dynamic vapor sorption (DVS); format: physicochemical
Procedure: Dynamic Vapor Sorption (DVS) was measured via a SMS (Surface Measurement Systems) DVS Intrinsic. The relative humidity at 25° C. was calibrated against deliquescence point of LiCl, Mg(NO3)2 and KCl. Typical Parameters for DVS test are listed below.
Gas and flow rate: N2, 200 mL/min

[3] = Kinetic solubility in bio-relevant media (FaSSIF, FeSSIF), HPLC quantification; format: physicochemical; settings: thermodynamic from solid, RT; for solubility at 1 h: time point 1 h; for solubility at 4 h: time point 4 h; for solubility at 24 h: time point 24 h
Procedure: 2. Add 3 mL of bio-relevant medium into each vial.
3. Cap the vials and keep all the suspension samples stirring at RT (room temperature) using a rolling incubator at a rate of 25 r/min.
4. Sample at 1 h, 4 h and 24 h respectively. About 0.6 mL aliquot of the suspension is transferred per time from solubility vial into a centrifuge filtration tube (pore size of 0.45 μm).
5. Centrifuge filtration tubes at a rate of 8500 rpm for 3 minutes at RT, collect 0.2 mL of supernatant for HPLC quantification determination and collect the rest of solution for pH measurement, and separate the solid for XRPD characterization.

gout patients = gout patients who did not get benefit from allopurinol and febuxostat; lesinurad alone; cited from earlier work
[4] = FaSSIF (fasted state simulated intestinal fluid), FaSSIF
[5] = FeSSIF (fed state simulated intestinal fluid), FeSSIF

Row | Stability under stress conditions [1] | Final form ([1]; stored under 25° C./60% RH) | Final form ([1]; stored under 40° C./75% RH) | Water uptake under 80% RH ([2]; 25° C., 80% RH) | Water uptake under 95% RH ([2]; 25° C.) | SMILES | further results
1 | stable | co-crystal | co-crystal |  |  | O=C(O)CSc1nnc(Br)n1-c1ccc(C2CC2)c2ccccc12.O=C(O)[C@@H]1CCCN1 | 
2 | stable | calcium salt Form A | calcium salt Form A | 0.15% | 0.33% | O=C([O-])CSc1nnc(Br)n1-c1ccc(C2CC2)c2ccccc12.O=C([O-])CSc1nnc(Br)n1-c1ccc(C2CC2)c2ccccc12.[Ca+2] [calcium salt Form A] | Hygroscopicity ([2]; 80% RH, 25° C., European pharmacopoeia criteria): almost not hygroscopic; Deliquescence under high humidity conditions ([2]; high humidity): does not deliquesce
3 |  |  |  |  |  | O=C(O)CSc1nnc(Br)n1-c1ccc(C2CC2)c2ccccc12 [lesinurad freeacid, 2-((5-bromo-4-(4-cyclopropylnaphthalen-1-yl)-4H-1,2,4-triazol-3-yl)thio)acetic acid] | solubility at 1 h [3, 4]: 2890 µg/mL (≈ 7.15 mM); solubility at 4 h [3, 4]: 3580 µg/mL (≈ 8.86 mM); solubility at 24 h [3, 4]: 3000 µg/mL (≈ 7.42 mM); solubility at 1 h [3, 5]: 1510 µg/mL (≈ 3.72 mM); solubility at 4 h [3, 5]: 2140 µg/mL (≈ 5.29 mM); solubility at 24 h [3, 5]: 1930 µg/mL (≈ 4.78 mM); Serum levels of uric acid (gout patients): significantly reduced
4 |  |  |  | 25.11% | 32.13% | O=C([O-])CSc1nnc(Br)n1-c1ccc(C2CC2)c2ccccc12.[Na+] [sodium salt Form A, reference compound] | 
